# Results: paper PMC4752462 (PLoS ONE, 2016)
# What was measured:
# [1] = molecular target: T1, human recombinant CYP3A4 (Homo sapiens, UniProt P08684); assay: CYP3A4 inhibition, Vivid CYP450 blue screening kit with baculosomes; format: biochemical
# T1 construct: purchased Life Technologies P2858; host or cells: baculosomes (baculovirus-infected insect cell microsomes)
# Procedure: CYP3A4 inhibition assay was carried out by using Vivid® CYP450 Screening Kit from Life Technologies as recommended by the manufacturer (# P2858, Carlsbad, CA). This assay allows rapid measurement of interactions between drugs of interest and CYP enzymes based on their capability to inhibit the production of a fluorescent signal in reactions using CYP BACULOSOMES® Plus Reagents and specific Vivid® Substrates. Briefly, the assay was conducted in a 96-well assay plate. […] The final concentrations of 2.5, 5, 7.5, 10, 25, 50, 75, and 100 μM were achieved by diluting the stocks in 1X Vivid® CYP reaction buffer. […] For ethanol only experiment, 2.5, 5, […], 20, 30, and 50 mM final concentrations were used. The final concentration of acetonitrile in each reaction was 0.01% in 100 μl final reaction volume. The fluorescence was immediately measured using a microplate reader (Cytation™ 5 Cell Imaging Multi-Mode Reader, BioTek, VT) at the 415/460 nm excitation and emission wavelengths.
# The concentrations of all the drugs were quantified using Ab Sciex Analyst® software. Microsomal kinetic data were analyzed using Michaelis-Menten and exponential decay equations. CYP3A4 inhibition data were evaluated by fitting the values to dose-response inhibition and calculated IC50 values were reported. All graphs were plotted and two-tailed t-tests were performed wherever appropriate using GraphPad Prism 5.01 (GraphPad, San Diego, CA). Significant differences between more than two groups analyzed with one-way ANOVA followed by Dunnett’s multiple comparison tests using IBM SPSS […] version 20. A p value <0.05 was considered significant compared to respective controls. The original data and/or statistical analyses for Michaelis-Menten Kinetics, drug metabolism and half-life determination, inhibition studies, and ligand docking are provided in the supporting information (S1 file).
# [2] = test system: CYP3A4; conditions: cited from earlier work
# T1 sequence (P08684 whole entry): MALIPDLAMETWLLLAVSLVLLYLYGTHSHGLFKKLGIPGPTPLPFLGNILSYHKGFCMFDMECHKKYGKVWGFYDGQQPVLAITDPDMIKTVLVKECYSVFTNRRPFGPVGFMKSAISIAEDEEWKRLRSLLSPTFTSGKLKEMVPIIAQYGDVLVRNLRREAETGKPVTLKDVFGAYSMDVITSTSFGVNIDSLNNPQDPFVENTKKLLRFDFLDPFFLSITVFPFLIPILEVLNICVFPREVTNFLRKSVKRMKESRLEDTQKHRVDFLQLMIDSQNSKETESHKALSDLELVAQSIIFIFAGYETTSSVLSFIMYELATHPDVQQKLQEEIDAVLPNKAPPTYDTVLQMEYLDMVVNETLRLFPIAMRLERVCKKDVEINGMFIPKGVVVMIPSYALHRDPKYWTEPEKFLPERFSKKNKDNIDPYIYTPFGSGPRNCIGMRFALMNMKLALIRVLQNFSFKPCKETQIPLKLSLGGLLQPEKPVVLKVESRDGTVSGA
smiles,measurement,setting,value
"CCO [EtOH, ethanol]",CYP3A4 activity (Fig 5 inset),[1]; EtOH 2.5 mM alone,102.61
same,CYP3A4 activity (Fig 5 inset),[1]; EtOH 5 mM alone,98.7735
same,CYP3A4 activity (Fig 5 inset),[1]; EtOH 10 mM alone,93.5305
same,CYP3A4 activity (Fig 5 inset),[1]; EtOH 20 mM alone,91.7899
same,CYP3A4 activity (Fig 5 inset),[1]; EtOH 30 mM alone,86.4404
same,CYP3A4 activity (Fig 5 inset),[1]; EtOH 50 mM alone,79.5554
same,inhibition of CYP3A4,[1]; ethanol only at 20 mM,~ 10%
CC(C)CN(C[C@@H](O)[C@H](Cc1ccccc1)NC(=O)O[C@H]1CCOC1)S(=O)(=O)c1ccc(N)cc1 [amprenavir],effect of ethanol exposure on the IC50 value,[2],significantly decreased
Cc1c(O)cccc1C(=O)N[C@@H](CSc1ccccc1)[C@H](O)CN1C[C@H]2CCCC[C@H]2C[C@H]1C(=O)NC(C)(C)C [nelfinavir],effect of ethanol exposure on the IC50 value,[2],significantly decreased
